According to publication PMC4841789, “Synthesis and pharmacological evaluation of mono-arylimidamides as antileishmanial agents” (Bioorganic & Medicinal Chemistry Letters, 2016):
Where two headings read alike, the source gives them in different places.

Tests used:
[1] = tested on: Intracellular L. amazonensis; experiment: Efficacy against intracellular L. amazonensis amastigotes; format: cell-based; conditions: Leishmania amazonensis
Excerpt: (§1) Methods employed for the evaluation of the efficacy of mono-AIA target compounds against intracellular L. amazonensis[14] and intracellular L. donovani[15] and for toxicity to murine J774 macrophages[16] have been described previously. […] For ease in illustrating the antileishmanial SAR of this series of compounds, the central phenyl ring, the linker, and the terminal phenyl ring are referred to as rings A, B, and C, respectively (Fig. 1).

J774 macrophages = experiment: Toxicity to murine J774 macrophages (host cell counterscreen); format: cell-based; conditions: for IC50: Mus musculus; for selectivity index for intracellular Leishmania compared to J774 murine macrophages: IC50 vs J774 macrophages/IC50 vs Leishmania
Excerpt: For ease in illustrating the antileishmanial SAR of this series of compounds, the central phenyl ring, the linker, and the terminal phenyl ring are referred to as rings A, B, and C, respectively (Fig. 1).

[2] = tested on: Intracellular L. donovani; experiment: Efficacy against intracellular L. donovani amastigotes; format: cell-based; conditions: Leishmania donovani; means ± standard errors of at least three independent experiments
Excerpt: as §1

L. donovani LV82 = experiment: Murine model of visceral leishmaniasis (liver parasitemia); format: in vivo; conditions: L. donovani-infected mice; for suppression (inhibition) of liver parasitemia: i.p. 30 mg/kg/day for 5 days, vs untreated control
Experimental: (§2) Compounds 1b, 1d, and 1k were dissolved in water and administered to healthy BALB/c mice for assessment of their in vivo toxicity. […] Animals were infected with L. donovani LV82 promastigotes and then treated with different compounds one week post infection for five consecutive days. These mice were euthanized two weeks post infection and liver smear slides were prepared for the microscopic determination of parasitemia.
Compounds were administered i.p. (A and B) or p.o. (C) once daily for 5 days to infected mice. Results are presented as the percentage inhibition of liver parasitemia. Bars and error bars show the mean and standard deviation, respectively (n = 4) ^*p < 0.01, compared to untreated control, ^#p < 0.05, compared to untreated control.

healthy BALB/c mice = experiment: In vivo toxicity assessment in healthy BALB/c mice; conditions: i.p. 30 mg/kg/day for 5 days, dissolved in water
Experimental: as §2

[3] = Plasma and tissue concentrations after a single oral dose; format: in vivo; conditions: mouse, mice; for concentration at 24 h: 24 h after single oral dose 100 μmol/kg (40 mg/kg); for concentration at 1 h: 1 h after single oral dose 100 μmol/kg (40 mg/kg)
Experimental: To confirm the exposure and accumulation of 1b in target organs after oral administration, plasma and tissue concentrations of this compound were determined at 1, 2 and 24 h after a single oral dose at 100 μmol/kg (or 40 mg/kg) in mice. Compound 1b accumulated in the target organs such as liver and spleen at higher concentrations (C1h = 12.6 and 4.7 μM, respectively) than in the plasma (C1h = 1.9 μM) (Fig. 3). At 24 h post dose, 1b concentrations decreased substantially to 0.14 μM in the plasma and 0.6–0.7 μM in the liver and spleen.
Figure 3 Concentration of 1b in liver ( [drawing 15] ), spleen ( [drawing 16] ), kidney ( [drawing 17] ), and plasma ( [drawing 18] ) after oral administration at a dose of 100 μmol/kg (or 40 mg/kg) to mice. Bars and error bars represent means and standard errors of triplicate determinations, respectively.

[4] = tested on: intracellular L. amazonensis amastigotes; experiment: Combination study of 1b and posaconazole against intracellular L. amazonensis amastigotes; format: cell-based; conditions: Leishmania amazonensis; combination experiment, absence of posaconazole; read-out: IC50 of 1b alone
Excerpt: Our efforts to explore the mechanism of antileishmanial action of the bis-AIAs led to the observation that DB766 is synergistic with posaconazole against Leishmania donovani in vitro[17]; other investigators reported in vitro antileishmanial synergy between posaconazole and the squalene synthase inhibitor E5700.[18] A combination study with 1b and posaconazole was thus performed against intracellular L. amazonensis amastigotes. […] Instead, the method described by Peters et al.[23] was employed to determine whether posaconazole enhances the potency of 1b. […] Although both assays involved incubating infected murine peritoneal macrophages with posaconazole for 72 h, de Macedo-Silva exposed peritoneal macrophages to L. amazonensis for a shorter time compared to our studies prior to removing extracellular parasites (2 h vs overnight). […] Thus, a likely explanation for the discrepancy between IC50 values for posaconazole against intracellular L. amazonensis in the two studies is the differences in assay conditions employed.
Figure 4 In vitro interactions between 1b and posaconazole against intracellular L. amazonensis. Results are presented as the IC50 of 1b alone and in different combinations. Bars and error bars show the mean and standard deviation of three independent experiments.

[5] = means ± standard errors of at least three independent experiments, values marked b: means ± range of two experiments, read-out: IC50 Intracellular L. amazonensis
[6] = murine J774 macrophages, means ± standard errors of at least three independent experiments, read-out: IC50 J774 macrophages

Row | Compound | IC50 [1, 5] [nM] | IC50 (J774 macrophages; [6]) [µM] | IC50 [2] [nM] | further results
1 | CC(C)Oc1cc(NC(=N)c2ccccn2)ccc1-c1ccco1 [Compound 1a] | 2100 ± 200 | 22 | 2400 ± 300 | –
2 | CC(C)Oc1cc(NC(=N)c2ccccn2)ccc1-c1ccc(-c2ccccc2)o1.CS(=O)(=O)O [Compound 1b, N-(3-isopropoxy-4-(5-phenylfuran-2-yl)phenyl)picolinimidamide methanesulfonate] | 130 ± 30 | 13 | 310 ± 10 | suppression (inhibition) of liver parasitemia (L. donovani LV82): 37%; inhibition of liver parasitemia (L. donovani LV82; p.o. 50 mg/kg once daily for 5 days): 37%; inhibition of liver parasitemia (L. donovani LV82; p.o. 100 mg/kg/day for five days, vs control): 46%; selectivity index for intracellular Leishmania compared to J774 murine macrophages (J774 macrophages): ≥ 25; in vivo tolerability (healthy BALB/c mice): well tolerated; concentration at 24 h ([3]; liver and spleen, read-out: concentration in the liver and spleen at 24 h post dose): 600 to 700 nM; concentration at 1 h ([3]; liver, read-out: liver concentration C1h): 12.6 µM; concentration at 1 h ([3]; plasma, read-out: plasma concentration C1h): 1.9 µM; concentration at 24 h ([3]; plasma, read-out: plasma concentration at 24 h post dose): 140 nM; concentration at 1 h ([3]; spleen, read-out: spleen concentration C1h): 4.7 µM; IC50 [4]: 260 ± 50 nM
3 | CC(C)Oc1cc(NC(=N)c2ccccn2)ccc1-c1ccc(-c2cncnc2)o1 [Compound 1c] | 1100 ± 300 | > 20 | 2100 ± 400 | –
4 | CC(C)Oc1cc(NC(=N)c2ccccn2)ccc1-c1ccc(-c2ccco2)o1.Cl [Compound 1d] | 250 ± 10 | 8.5 ± 0.8 | 340 ± 50 | suppression (inhibition) of liver parasitemia (L. donovani LV82): 13%; selectivity index for intracellular Leishmania compared to J774 murine macrophages (J774 macrophages): ≥ 25; in vivo tolerability (healthy BALB/c mice): well tolerated
5 | CC(C)Oc1cc(NC(=N)c2ccccn2)ccc1-c1ccc(-c2cccnc2)o1 [Compound 1e] | 900 ± 230 | > 50 | 1200 ± 100 | –
6 | CC(C)Oc1cc(NC(=N)c2ccccn2)ccc1-c1ccc(-c2ccncc2)o1 [Compound 1f] | 2700 ± 200 | 22 | 2600 ± 100 | –
7 | COc1ccc(-c2ccc(-c3ccc(NC(=N)c4ccccn4)cc3OC(C)C)o2)cc1 [Compound 1g] | 820 ± 310 | 6.7 ± 0.9 | 900 ± 150 | –
8 | CC(C)Oc1cc(NC(=N)c2ccccn2)ccc1-c1ccc(-c2ccc(F)cc2)o1 [Compound 1h] | 920 ± 190 | 8 ± 0.1 | 1100 ± 100 | –
9 | COc1ccccc1-c1ccc(-c2ccc(NC(=N)c3ccccn3)cc2OC(C)C)o1 [Compound 1i] | 1400 ± 200 | 5.3 ± 1 | 1300 ± 100 | –
10 | CC(C)Oc1cc(-c2ccc(-c3ccccc3)o2)ccc1NC(=N)c1ccccn1 [Compound 1j] | 1600 ± 300 | 13 | 1400 ± 300 | –
11 | CS(=O)(=O)O.N=C(Nc1ccc(-c2ccc(-c3ccccc3)o2)c(OC2CCCC2)c1)c1ccccn1 [Compound 1k] | 140 ± 10 | 13 | 170 ± 40 | suppression (inhibition) of liver parasitemia (L. donovani LV82): 20%; selectivity index for intracellular Leishmania compared to J774 murine macrophages (J774 macrophages): ≥ 25; in vivo tolerability (healthy BALB/c mice): well tolerated
12 | CCOc1cc(NC(=N)c2ccccn2)ccc1-c1ccc(-c2ccccc2)o1 [Compound 1l] | 980 ± 70 | 6.6 ± 0.6 | 850 ± 170 | –
13 | COc1cc(NC(=N)c2ccccn2)ccc1-c1ccc(-c2ccccc2)o1 [Compound 1m] | 3700 ± 1300 | 9 ± 2 | 1400 ± 300 | –
14 | N=C(Nc1ccc(-c2ccc(-c3ccccc3)o2)c(C(F)(F)F)c1)c1ccccn1 [Compound 1n] | > 10000 | > 20 | 6100 ± 1400 | –
15 | CC(C)Oc1cc(NC(=N)c2ccccn2)ccc1-c1ccc(-c2ccccc2)s1 [Compound 1o] | 2300 ± 300 | 6.9 ± 0.4 | 2200 ± 500 | –
16 | CC(C)Oc1cc(NC(=N)c2ncccn2)ccc1-c1ccc(-c2ccccc2)o1 [Compound 1p] | 650 ± 160 | 12 | 440 ± 60 | –
17 | COc1ccc(-n2cc(-c3ccc(NC(=N)c4ccccn4)cc3OC(C)C)nn2)cc1 [Compound 2] | 2900 ± 100 | 16 | 1600 ± 200 | –
18 | CC(C)Oc1cc(NC(=N)c2ccccn2)ccc1-c1cnc(-c2ccccc2)o1 [Compound 3] | 590 ± 60 | 24 | 1000 | –
19 | C[C@@H]1[C@H](O)[C@@H](C)/C=C/C=C/C=C/C=C/C=C/C=C/C=C/[C@H](O[C@@H]2O[C@H](C)[C@@H](O)[C@H](N)[C@@H]2O)C[C@@H]2O[C@](O)(C[C@@H](O)C[C@@H](O)[C@H](O)CC[C@@H](O)C[C@@H](O)CC(=O)O[C@H]1C)C[C@H](O)[C@H]2C(=O)O [amphotericin B, reference compound] | 120 ± 10 | – | 40 ± 3 | –
20 | CCCCCCCCCCCCCCCCOP(=O)([O-])OCC[N+](C)(C)C [miltefosine, reference compound] | – | – | – | inhibition of liver parasitemia (L. donovani LV82; i.p. 10 mg/kg/day for five days, 10 mg/kg/day): > 90%; inhibition of liver parasitemia (L. donovani LV82; i.p. 10 mg/kg/day for five days, listed as Milt, 10 mg/kg/day): 99%; inhibition of liver parasitemia (L. donovani LV82; i.p. 10 mg/kg/day for five days, listed as Miltefosine, 10 mg/kg/day): 98%; inhibition of liver parasitemia (L. donovani LV82; p.o. 10 mg/kg/day for five days, 10 mg/kg/day): > 90%; inhibition of liver parasitemia (L. donovani LV82; p.o. 10 mg/kg/day for five days, listed as Milt, 10 mg/kg/day): 96%
21 | COc1cc([C@@H]2c3cc4c(cc3[C@H](O)[C@H]3COC(=O)[C@H]23)OCO4)cc(OC)c1OC [podophyllotoxin, reference compound] | – | – | – | IC50 (J774 macrophages; J774, read-out: IC50 J774 macrophages): 0.024 ± 0.005 µM
22 | CC[C@@H]([C@H](C)O)n1ncn(-c2ccc(N3CCN(c4ccc(OC[C@@H]5CO[C@@](Cn6cncn6)(c6ccc(F)cc6F)C5)cc4)CC3)cc2)c1=O [posaconazole, reference compound] | – | – | – | IC50 ([1]; Peritoneal macrophage, infected murine peritoneal macrophages, 72 h, low solubility at higher concentrations, read-out: IC50 against intracellular L. amazonensis): > 10000 nM
